Laboratory results from the supplement of paper PMC5908809.

How the values were obtained:
[1] = test system: normal NK cells expanded with K562-aAPC; experiment: percent inhibition of viability; higher = more inhibition; details: 72 h, IL-2 2.5 ng/mL
Experimental: (§1)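 Drug sensitivity and resistance testing on K562-aAPC-expanded normal NK cells: 5 concentrations (10-fold steps over a 10,000-fold range), 72 h at 37 °C, viability by CellTiter-Glo normalised to DMSO and benzethonium chloride controls; DSS from the fitted curve.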

DERL-7 (IL-2 2.5 ng/mL) [2] = experiment: as above; details: 72 h
IMC-1 (IL-2 20 ng/mL) [3] = experiment: as above; details: 72 h
KAI3 (IL-2 2.5 ng/mL) [4] = experiment: as above; details: 72 h
KHYG-1 (IL-2 2.5 ng/mL) [5] = experiment: as above; details: 72 h
NK-92 (IL-2 2.5 ng/mL) [6] = experiment: as above; details: 72 h
NK-YS (IL-2 2.5 ng/mL) [7] = experiment: as above; details: 72 h
NKL (IL-2 2.5 ng/mL) [8] = experiment: as above; details: 72 h
SNK-6 (IL-2 2.5 ng/mL) [9] = experiment: as above; details: 72 h
YT (IL-2 2.5 ng/mL) [10] = experiment: as above; details: 72 h
[11] = test system: normal primary NK cells, pool 1 (3 donors) (IL-2 2.5 ng/mL); experiment: as above; details: 72 h
[12] = test system: normal primary NK cells, pool 1 (3 donors), resting (IL-2 0 ng/mL); experiment: as above; details: 72 h
[13] = test system: normal primary NK cells, pool 2 (3 donors) (IL-2 2.5 ng/mL); experiment: as above; details: 72 h
[14] = test system: normal primary NK cells, pool 3 (3 donors) (IL-2 2.5 ng/mL); experiment: as above; details: 72 h
[15] = test system: normal NK cells expanded with K562-aAPC; experiment: drug sensitivity score (DSS) (DSS units); higher = more sensitive; extreme values may be limits of the assay; details: 72 h; IL-2 2.5 ng/mL
Experimental: as §1

DERL-7 (IL-2 2.5 ng/mL) [16] = experiment: as above; details: 72 h
IMC-1 (IL-2 20 ng/mL) [17] = experiment: as above; details: 72 h
KAI3 (IL-2 2.5 ng/mL) [18] = experiment: as above; details: 72 h
KHYG-1 (IL-2 2.5 ng/mL) [19] = experiment: as above; details: 72 h
NK-92 (IL-2 2.5 ng/mL) [20] = experiment: as above; details: 72 h
NK-YS (IL-2 2.5 ng/mL) [21] = experiment: as above; details: 72 h
NKL (IL-2 2.5 ng/mL) [22] = experiment: as above; details: 72 h
SNK-6 (IL-2 2.5 ng/mL) [23] = experiment: as above; details: 72 h
YT (IL-2 2.5 ng/mL) [24] = experiment: as above; details: 72 h
[25] = test system: normal primary NK cells, pool 1 (3 donors) (IL-2 2.5 ng/mL); experiment: as above; details: 72 h
[26] = test system: normal primary NK cells, pool 1 (3 donors), resting (IL-2 0 ng/mL); experiment: as above; details: 72 h
[27] = test system: normal primary NK cells, pool 2 (3 donors) (IL-2 2.5 ng/mL); experiment: as above; details: 72 h
[28] = test system: normal primary NK cells, pool 3 (3 donors) (IL-2 2.5 ng/mL); experiment: as above; details: 72 h

COc1cc(N2CCN(C)CC2)ccc1Nc1nccc(-c2cn(C)c3cnccc23)n1 [AZ191] (max concentration tested 10000 nM)
percent inhibition of viability [%]
Details	1 nM	10 nM	100 nM	1000 nM	10000 nM
DERL-7 (IL-2 2.5 ng/mL) [2]	7.49	2.85	4.6	22.2	100
IMC-1 (IL-2 20 ng/mL) [3]	-5.47	3.31	-0.27	2.63	101
KAI3 (IL-2 2.5 ng/mL) [4]	-2.82	-0.25	1.51	7.76	96.3
KHYG-1 (IL-2 2.5 ng/mL) [5]	0.79	2.96	3.04	14.1	84
NK-92 (IL-2 2.5 ng/mL) [6]	2.97	2.04	-3.34	-19.2	93.8
NK-YS (IL-2 2.5 ng/mL) [7]	-4.12	2.61	2.04	8.64	101
NKL (IL-2 2.5 ng/mL) [8]	0.2	-6.29	1.16	9.93	100
SNK-6 (IL-2 2.5 ng/mL) [9]	-18.5	-11.7	-15.3	-7.38	92
YT (IL-2 2.5 ng/mL) [10]	2.03	4.34	2.77	1.55	41.9
[1]	-2.34	0.52	-4.12	6.6	100
[11]	7.5	-5.03	-5.7	-4.75	96.8
[12]	1.62	-14.6	-3.74	-36.1	89
[13]	-12.1	-5.94	-2.76	-11.2	95.5
[14]	-10.6	-7.12	4.76	-17.3	97.8

Details	drug sensitivity score
DERL-7 (IL-2 2.5 ng/mL) [16]	9.03
IMC-1 (IL-2 20 ng/mL) [17]	6.03
KAI3 (IL-2 2.5 ng/mL) [18]	6.56
KHYG-1 (IL-2 2.5 ng/mL) [19]	7.01
NK-92 (IL-2 2.5 ng/mL) [20]	4.21
NK-YS (IL-2 2.5 ng/mL) [21]	6.95
NKL (IL-2 2.5 ng/mL) [22]	7.17
SNK-6 (IL-2 2.5 ng/mL) [23]	4.58
YT (IL-2 2.5 ng/mL) [24]	2.31
[15]	6.54
[25]	5.01
[26]	3.59
[27]	4.59
[28]	4.48

Cc1ccc(NC(=O)c2ccc(CN3CC[C@H](N(C)C)C3)c(C(F)(F)F)c2)cc1Nc1nccc(-c2cncnc2)n1 [Bafetinib] (max concentration tested 1000 nM)
percent inhibition of viability [%]
Details	0.1 nM	1 nM	10 nM	100 nM	1000 nM
DERL-7 (IL-2 2.5 ng/mL) [2]	-14	2.29	-3.89	-8.4	14.2
IMC-1 (IL-2 20 ng/mL) [3]	-6.49	-4.43	-0.85	0.31	1.78
KAI3 (IL-2 2.5 ng/mL) [4]	0.47	0.29	2.91	12	41.7
KHYG-1 (IL-2 2.5 ng/mL) [5]	-4.48	-4.63	1.74	7.43	22.3
NK-92 (IL-2 2.5 ng/mL) [6]	-11.6	-4.05	0.45	9.61	26.8
NK-YS (IL-2 2.5 ng/mL) [7]	-4.77	-6.95	-3.78	-1.77	18.9
NKL (IL-2 2.5 ng/mL) [8]	5.49	-2.75	4.28	18	50.2
SNK-6 (IL-2 2.5 ng/mL) [9]	-21	16.9	-16.6	-25.9	-21.8
YT (IL-2 2.5 ng/mL) [10]	-6.07	-5.69	-1.09	1.37	19.6
[1]	-3.13	-5.16	-2.83	2.67	30.9
[11]	-1.48	-8.42	-2.74	1.21	12
[12]	-11.6	-4.75	5.74	-0.62	2.62
[13]	-9.03	-9.08	-6.83	2.13	11.8
[14]	-3.5	-5.78	-5.64	-5.35	13.7

Details	drug sensitivity score
DERL-7 (IL-2 2.5 ng/mL) [16]	0.06
IMC-1 (IL-2 20 ng/mL) [17]	0
KAI3 (IL-2 2.5 ng/mL) [18]	3.8
KHYG-1 (IL-2 2.5 ng/mL) [19]	1.5
NK-92 (IL-2 2.5 ng/mL) [20]	2.35
NK-YS (IL-2 2.5 ng/mL) [21]	0.42
NKL (IL-2 2.5 ng/mL) [22]	4.77
SNK-6 (IL-2 2.5 ng/mL) [23]	0
YT (IL-2 2.5 ng/mL) [24]	0.72
[15]	1.77
[25]	0.1
[26]	0
[27]	0.12
[28]	0.06

OCCn1cc(-c2cnc3nnn(Cc4ccc5ncccc5c4)c3n2)cn1 (max concentration tested 2500 nM)
percent inhibition of viability [%]
Details	0.25 nM	2.5 nM	25 nM	250 nM	2500 nM
DERL-7 (IL-2 2.5 ng/mL) [2]	-0.9	-0.84	0.34	-3	-8.26
IMC-1 (IL-2 20 ng/mL) [3]	-3.49	3.05	-2.66	5.69	6.58
KAI3 (IL-2 2.5 ng/mL) [4]	-0.76	-5.72	5.28	8.13	18.2
KHYG-1 (IL-2 2.5 ng/mL) [5]	-6.94	-4.08	-4.27	1.49	7.29
NK-92 (IL-2 2.5 ng/mL) [6]	-3.39	13.7	-1.59	11.9	33.2
NK-YS (IL-2 2.5 ng/mL) [7]	-3.62	-4.61	-4.57	1.28	16.9
NKL (IL-2 2.5 ng/mL) [8]	-0.17	5.36	16.3	12	17.6
SNK-6 (IL-2 2.5 ng/mL) [9]	-14.8	-17.6	-15.8	-7.55	1.66
YT (IL-2 2.5 ng/mL) [10]	-6.67	-5.28	-6.34	-0.92	12.8
[1]	-1.81	-5.59	-1.09	4.36	10.7
[11]	-4.03	5.55	18.1	6.24	10.1
[12]	-7.9	6.66	4.48	7.02	11.4
[13]	-2.43	3.77	5.1	-2.16	4.71
[14]	-4.09	3.45	7.9	-5.94	7.18

Details	drug sensitivity score
DERL-7 (IL-2 2.5 ng/mL) [16]	0
IMC-1 (IL-2 20 ng/mL) [17]	0
KAI3 (IL-2 2.5 ng/mL) [18]	0.81
KHYG-1 (IL-2 2.5 ng/mL) [19]	0
NK-92 (IL-2 2.5 ng/mL) [20]	3.17
NK-YS (IL-2 2.5 ng/mL) [21]	0.5
NKL (IL-2 2.5 ng/mL) [22]	3.7
SNK-6 (IL-2 2.5 ng/mL) [23]	0
YT (IL-2 2.5 ng/mL) [24]	0.06
[15]	0.06
[25]	0.34
[26]	0.02
[27]	0
[28]	0
